From patent US9987256B2, “CFTR corrector for the treatment of genetic disorders affecting striated muscle” (UNIVERSITA' DEGLI STUDI DI PADOVA, priority 2012, dated 2018)
Where a chain is given by its changes, count along the chain named.

Tests used:
R164H mutant of SERCA1 = molecular target: T1, R164H mutant of SERCA1 (Bos taurus, UniProt Q0VCY0, R164H); experiment: Western blot rescue of R164H mutant of SERCA1 in HEK293 cells; type: cell-based, bovine; conditions: HEK293, 24 hours, relative to wild type
T1 construct: expressed in transfected cells; host or cells: HEK 293
T1 sequence (Q0VCY0 whole entry R164H): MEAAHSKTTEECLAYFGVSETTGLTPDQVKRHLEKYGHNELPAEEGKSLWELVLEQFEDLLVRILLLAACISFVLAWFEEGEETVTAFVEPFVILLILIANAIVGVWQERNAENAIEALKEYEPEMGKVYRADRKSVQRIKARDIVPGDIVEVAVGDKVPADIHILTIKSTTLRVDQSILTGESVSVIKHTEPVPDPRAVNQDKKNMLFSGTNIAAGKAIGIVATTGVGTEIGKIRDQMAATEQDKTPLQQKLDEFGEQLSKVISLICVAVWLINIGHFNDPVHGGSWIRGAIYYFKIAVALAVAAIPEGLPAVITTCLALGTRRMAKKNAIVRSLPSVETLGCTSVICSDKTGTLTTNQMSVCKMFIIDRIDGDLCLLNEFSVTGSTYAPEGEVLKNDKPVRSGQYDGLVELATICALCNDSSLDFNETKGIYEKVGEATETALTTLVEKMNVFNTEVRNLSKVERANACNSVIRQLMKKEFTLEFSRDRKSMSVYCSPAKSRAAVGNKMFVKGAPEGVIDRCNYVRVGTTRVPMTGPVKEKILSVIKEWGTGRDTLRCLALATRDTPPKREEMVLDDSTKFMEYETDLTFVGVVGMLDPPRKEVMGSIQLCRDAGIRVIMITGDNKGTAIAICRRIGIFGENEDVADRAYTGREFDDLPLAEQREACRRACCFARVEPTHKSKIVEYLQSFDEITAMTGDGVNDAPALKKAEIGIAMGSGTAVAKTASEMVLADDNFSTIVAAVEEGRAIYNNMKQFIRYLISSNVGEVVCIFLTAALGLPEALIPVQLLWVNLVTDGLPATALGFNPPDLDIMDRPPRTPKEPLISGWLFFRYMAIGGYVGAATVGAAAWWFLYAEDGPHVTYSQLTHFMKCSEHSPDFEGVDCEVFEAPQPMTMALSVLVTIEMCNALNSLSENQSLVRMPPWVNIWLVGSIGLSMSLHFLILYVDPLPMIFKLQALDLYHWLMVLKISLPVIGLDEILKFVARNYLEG
Method: In FIG. 3 are reported the results obtained with HEK 293 cells expressing the R164H mutant of SERCA1 treated for 24 hours with either Compound C 5 μM, Compound B 10 μM, Compound E 10 μM, compound F 10 μM, Compound A 2 μM, compound D 10 μM, MG132 (proteasome inhibitor) 10 μM, used as positive control or the vehicle DMSO at 1‰ concentration, used as negative control. At the end of treatments, cells were lysed and total protein resolved by SDS-PAGE. Western blotting analysis has been performed by using SERCA1 specific antibody and β-actin specific antibody, to normalize loaded proteins. In the upper panel of FIG. 3 is reported a representative Western blotting experiment. The expression of SERCA1 in different samples has been determined by densitometric analysis and indicated as percentage of SERCA 1 content present in wild type expressing cells treated with DMSO.
In FIG. 10 is reported the content of SERCA1 protein present in HEK 293 cells transfected with the R164H mutant of SERCA1 and treated for 24 hours with either Compound H 15 μM, Compound I 10 μM, compound Q 10 μM, Compound R 5 μM, Compound S 15 μM, Compound T 15 μM or the vehicle DMSO at 1‰ concentration, used as negative control. Cells expressing the wild type form of SERCA1 have also been used for comparison. At the end of treatments, cells were lysed and total protein resolved by SDS-PAGE. Western blotting analysis has been performed by using SERCA1 specific antibody and β-actin specific antibody, to normalize loaded proteins. The expression of SERCA1 in different samples has been determined by densitometric analysis and indicated as percentage of SERCA 1 content present in wild type expressing cells. The graph of FIG. 10 reports the average values (+/− standard error) of at least three independent experiments.

[1] = molecular target: T2, R98H mutant of alpha-sarcoglycan (Homo sapiens, UniProt Q16586, R98H); experiment: Confocal immunofluorescence, membrane localization of R98H alpha-sarcoglycan in HEK293 cells; type: cell-based; conditions: HEK293, 24 hours
T2 construct: expressed in transfected cells; host or cells: HEK293
T2 sequence (Q16586 24-387 R98H): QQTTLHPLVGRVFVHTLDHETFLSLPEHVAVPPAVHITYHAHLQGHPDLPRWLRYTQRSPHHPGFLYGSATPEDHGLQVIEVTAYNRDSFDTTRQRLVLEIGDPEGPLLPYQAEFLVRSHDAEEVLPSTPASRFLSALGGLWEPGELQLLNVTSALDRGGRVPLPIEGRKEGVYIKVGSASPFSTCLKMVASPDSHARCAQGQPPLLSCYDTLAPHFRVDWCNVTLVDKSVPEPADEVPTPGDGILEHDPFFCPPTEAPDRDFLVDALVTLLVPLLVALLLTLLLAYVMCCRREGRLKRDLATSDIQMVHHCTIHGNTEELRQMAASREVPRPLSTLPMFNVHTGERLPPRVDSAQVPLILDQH
Method: (§1) The cellular localization of either the V247M or R98H mutants, upon corrector treatments, has been verified by confocal immunofluorescence.
(§2) In the experiment reported in FIG. 8, HEK 293 cells expressing the R98H mutant have been treated for 24 hours with either Compound H (15 μM), Compound I (10 μM), Compound Q (10 μM), Compound A (2 μM) or the vehicle DMSO at 1% o concentration used as negative control. By comparison, cells expressing the wild type form of α-sarcoglycan have also been used. At the end of treatments, not permeabilized cells were incubated with a monoclonal antibody specific for an extracellular epitope of α-sarcoglycan in order to mark only the membrane resident α-sarcoglycan.
as §2, with “9,” for “8,”, “either two different concentration of” for “either”, “R (2.5 and 5” for “H (15”, “μM),” for “μM), Compound I (10 μM), Compound Q (10 μM), Compound A (2 μM)”, “1‰” for “1% o”

[2] = molecular target: T3, V247M mutant of alpha-sarcoglycan (Homo sapiens, UniProt Q16586, V247M); experiment: Confocal immunofluorescence, membrane localization of V247M alpha-sarcoglycan in HEK293 cells; type: cell-based; conditions: FIG. 2; HEK293, 24 hours; E 10 μM, D 10 μM, MG132 positive control; not permeabilized cells
T3 construct: expressed in transfected cells; host or cells: HEK 293
T3 sequence (Q16586 24-387 V247M): T2 sequence (Q16586 24-387 R98H) with H75R, V224M
Method: as §1
In the experiment reported in FIG. 2, HEK 293 cells expressing the V247M mutant have been treated for 24 hours with either Compound E (10 μM) or Compound D (10 μM), MG132 (positive control) or DMSO at 1‰ concentration (negative control). At the end of treatments, not permeabilized cells were incubated with a monoclonal antibody specific for an extracellular epitope of α-sarcoglycan in order to mark only the membrane resident α-sarcoglycan. By comparison, cells expressing the wild type form of α-sarcoglycan have also been used.

[3] = FIG. 3, C 5 μM, B 10 μM, E 10 μM, F 10 μM, A 2 μM, D 10 μM
[4] = FIG. 8, H 15 μM, I 10 μM, Q 10 μM, A 2 μM
[5] = FIG. 10, H 15 μM, I 10 μM, Q 10 μM, R 5 μM, S 15 μM, T 15 μM

SERCA1 protein level (western blot, densitometry), rescue of R164H mutant (R164H mutant of SERCA1; [3])	SERCA1 protein level (western blot, densitometry), rescue of R164H mutant (R164H mutant of SERCA1; [5])	Structure (SMILES)	plasma membrane localization of R98H alpha-sarcoglycan mutant [1, 4]	further results
promote the rescue	–	COc1ccc(Cl)cc1Nc1nc(-c2sc(NC(=O)C(C)(C)C)nc2C)cs1 [Compound A, N-(2-(5-chloro-2-methoxyphenylamino)-4′-methyl-4,5′-bithiazol-2′-yl)pivalamide]	promote the correct membrane localization	–
promote the rescue	–	COc1ccc(Cl)cc1Nc1nc(-c2sc(NC(=O)c3ccccc3)nc2C)cs1 [Compound E, N-[2-(5-Chloro-2-methoxy-phenylamino)-4′-methyl-[4,5′]bithiazolyl-2′-yl]-benzamide]	–	plasma membrane localization of V247M alpha-sarcoglycan mutant [2]: promoted the correct plasma membrane localization
promote the rescue	–	O=S(=O)(c1ccc(Cl)cc1)N1CCN(c2ccnc3cc(Cl)ccc23)CC1 [Compound F, 7-chloro-4-(4-(4-chlorophenylsulfonyl)piperazin-1-yl)quinoline]	–	–
–	promote the rescue	Cc1cc(C)c2c(C)cc(Nc3ccccc3)nc2c1 [Compound H, 4,5,7-trimethyl-N-phenylquinolin-2-amine]	promote the correct membrane localization	–
–	promote the rescue	Cc1cc(Nc2ccc(Br)cc2)nc2ccccc12 [Compound I, N-(4-bromophenyl)-4-methylquinolin-2-amine]	promote the correct membrane localization	–
–	promote the rescue	CC(=O)c1cccc(Nc2nc(-c3sc(NC(=O)c4ccccc4)nc3C)cs2)c1 [Compound Q, N-(2-(3-acetylphenylamino)-4′-methyl-4,5′-bithiazol-2′-yl)-benzamide]	promote the correct membrane localization	–
–	promote the rescue	C=Cc1ccc(-c2csc(Nc3ccccc3)n2)cc1 [Compound S, N-phenyl-4-(4-vinylphenyl)thiazol-2-amine]	–	–
–	promote the rescue	COc1ccc2nc(Nc3nc(=O)c(C)c(C)[nH]3)nc(C)c2c1 [Compound T, 2-(6-methoxy-4-methylquinazolin-2-ylamino)-5,6-dimethylpyrimidin-4(1H)-one]	–	–

Structure (SMILES)	SERCA1 protein level (western blot, densitometry), rescue of R164H mutant (R164H mutant of SERCA1; [3])	SERCA1 protein level (western blot, densitometry), rescue of R164H mutant (R164H mutant of SERCA1; [5])	plasma membrane localization of R98H alpha-sarcoglycan mutant [1, 4]	further results
COc1ccccc1Nc1nc(-c2sc(NC(=O)c3ccccc3)nc2C)cs1 [Compound R, N-(2-(2-methoxyphenylamino)-4′-methyl-4,5′-bithiazol-2′-yl)-benzamide]	–	promote the rescue	–	plasma membrane localization of R98H alpha-sarcoglycan mutant ([1]; FIG. 9, Compound R 2.5 and 5 μM): promoted the correct plasma-membrane localization
